The values that follow come from PubChem BioAssay (NCI).

Test systems include M14 melanoma; OVCAR-5 ovarian; RPMI-8226 leukemia; A498 renal; COLO 205 colon; HCT-116 colon; HCT-15 colon; HL-60(TB) leukemia; SNB-19 CNS; PC-3 prostate.
Holding throughout (experiment): NCI anticancer screen, dose series, 48 h

Values after ≈ are worked out from the molar mass of the structure shown. Values joined by “and” are separate entries in the source; they are usually repeats but may differ in a detail not shown here. Equal values may be shown once.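 These data come from cells grown in 96-well plates and exposed to compound for 48 hours at five concentrations. At the GI50, growth is halved. TGI marks complete inhibition of growth.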 Where only a bound is given, the exact number is not on record here.

With `CN(C)CCC1(C2=CCCC2)CC/C(=C\c2ccccc2)C1=O` (configuration not stated), the TGI in the experiment on M14 melanoma was 30.2 µM; with OVCAR-5 ovarian, 35.7 µM; in the experiment with RPMI-8226 leukemia, 35.1 µM; in the experiment with A498 renal, 29.1 µM; with COLO 205 colon, 28.3 µM; in the experiment on HCT-116 colon, 35.4 µM. In addition, the values for the TGI in the experiment on HCT-15 colon, in the experiment with HL-60(TB) leukemia and in the experiment with SNB-19 CNS were 26.6 µM, 29.9 µM and 28.3 µM, respectively.

With `CC[C@]12C=CCN3CCC4(c5cc([C@@]6(C(=O)OC)CC7CN(CCc8c6[nH]c6ccccc86)C[C@@H]6CCC[C@H]76)c(OC)cc5N(C)C4[C@](O)(C(=O)OC)C1OC(C)=O)C32` (some centres not stated), the TGI in the experiment with PC-3 prostate was more than 10 µM; with M14 melanoma it was more than 3.45 µM; with OVCAR-5 ovarian it was more than 10 µM; with RPMI-8226 leukemia, more than 7.96 µM; in the experiment with A498 renal, 0.816 µM; in the experiment with COLO 205 colon, 0.375 µM. Further, the TGI with HCT-116 colon was 3.64 µM; with HCT-15 colon, more than 10 µM; in the experiment on HL-60(TB) leukemia it was 0.289 µM; in the experiment on SNB-19 CNS, more than 10 µM.

Consider `CC1=NN(C(=O)Cc2ccccc2)C(=O)/C1=C\c1ccco1`, for which the TGI in the experiment with M14 melanoma, in the experiment with OVCAR-5 ovarian, in the experiment on RPMI-8226 leukemia, with COLO 205 colon, in the experiment with HCT-116 colon and with HCT-15 colon was more than 100 µM throughout. Also, the TGI in the experiment with HL-60(TB) leukemia and with SNB-19 CNS was more than 100 µM throughout.

Turning to `NC(N)=Nc1nc2ccccc2[nH]1`, the GI50 with OVCAR-5 ovarian is 27.8 µg/mL (≈ 159 µM); in the experiment on RPMI-8226 leukemia it was 2.98 µg/mL; with A498 renal, 45.8 µg/mL; in the experiment on COLO 205 colon, 61.7 µg/mL (≈ 352 µM); in the experiment with HCT-116 colon it was 49.3 µg/mL; in the experiment with HCT-15 colon, 80.9 µg/mL. Besides, the figures for the GI50 in the experiment on HL-60(TB) leukemia and in the experiment with SNB-19 CNS were 3.87 µg/mL and 137 µg/mL (≈ 782 µM), respectively. The TGI in the experiment with OVCAR-5 ovarian was more than 150 µg/mL; in the experiment with RPMI-8226 leukemia, 29.7 µg/mL; in the experiment on A498 renal it was more than 150 µg/mL; in the experiment on COLO 205 colon, more than 150 µg/mL; in the experiment with HCT-116 colon, more than 150 µg/mL; in the experiment with HCT-15 colon, more than 150 µg/mL. In addition, the values for the TGI with HL-60(TB) leukemia and in the experiment with SNB-19 CNS were 17.2 µg/mL and more than 150 µg/mL, respectively.

In the case of `COc1ccc([C@@H]2CC(=O)NCCCCNCCCN2)cc1`, the TGI with M14 melanoma, in the experiment on OVCAR-5 ovarian, in the experiment with RPMI-8226 leukemia, with A498 renal, in the experiment on COLO 205 colon and in the experiment with HCT-116 colon was more than 100 µM in each case. The TGI with HCT-15 colon, in the experiment on HL-60(TB) leukemia and in the experiment with SNB-19 CNS was more than 100 µM in each case.

In the case of `BrC12c3ccccc3Sc3ccccc3C1(Br)c1ccccc12` (configuration not stated), the TGI came to 28.8 µM in the experiment with M14 melanoma; 86.2 µM in the experiment on OVCAR-5 ovarian; 36.4 µM with RPMI-8226 leukemia; 70.7 µM with A498 renal; 76.3 µM in the experiment on COLO 205 colon; 52.1 µM in the experiment on HCT-116 colon. The TGI in the experiment on HCT-15 colon is 46.3 µM; with HL-60(TB) leukemia it was 29.1 µM; in the experiment on SNB-19 CNS, more than 100 µM.

On to `CCOC(=O)/C=C/c1ccccn1`, for which the TGI in the experiment with M14 melanoma, in the experiment with OVCAR-5 ovarian, in the experiment with RPMI-8226 leukemia, in the experiment with A498 renal, in the experiment with COLO 205 colon and in the experiment with HCT-116 colon was more than 100 µM each time. For the same compound, the TGI with HCT-15 colon and in the experiment on HL-60(TB) leukemia was more than 100 µM in each case.

As for `CC(=O)NC(CCCCNC(=O)N(C)N=O)C(=O)NCc1ccccc1` (configuration not stated), the TGI in the experiment with M14 melanoma, with OVCAR-5 ovarian, in the experiment with RPMI-8226 leukemia, in the experiment on A498 renal, in the experiment on COLO 205 colon and in the experiment with HCT-116 colon was more than 100 µM each time. Moreover, the TGI with HCT-15 colon and with SNB-19 CNS was more than 100 µM throughout.

As for `COc1cc([C@@H]2c3cc4c(c(O)c3C[C@H]3COC(=O)[C@@H]32)OCO4)cc(OC)c1O`, the TGI was more than 200 µM with OVCAR-5 ovarian; 49.1 µM with RPMI-8226 leukemia; 0.0046 µM and < 0.02 µM in the experiment on A498 renal; 0.174 µM in the experiment on COLO 205 colon; more than 20 µM in the experiment on HCT-116 colon; more than 9.28 µM with HCT-15 colon. Moreover, the TGI in the experiment with HL-60(TB) leukemia is 0.0066 µM; in the experiment on SNB-19 CNS it was more than 200 µM. Further, the GI50 in the experiment with RPMI-8226 leukemia was 0.0041 µM; in the experiment on A498 renal, 0.00144 µM; with HCT-116 colon, 0.0039 µM; in the experiment on HCT-15 colon, 0.00348 µM and 0.0265 µM; in the experiment with HL-60(TB) leukemia, 0.00241 µM.

In the case of `N#Cc1c2nc3ccccc3nc2n2ccc3ccccc3c12`, the TGI with M14 melanoma, with OVCAR-5 ovarian, in the experiment on RPMI-8226 leukemia, in the experiment on COLO 205 colon, in the experiment on HCT-116 colon and in the experiment with HCT-15 colon was more than 100 µM each time. Also, the TGI in the experiment with HL-60(TB) leukemia and in the experiment on SNB-19 CNS was more than 100 µM in each case.

On to `COC(=O)NN1C(C)=C(C(=O)OC)C2(CCOC2=O)C1(C)O` (configuration not stated), for which the TGI in the experiment with M14 melanoma, in the experiment on OVCAR-5 ovarian, in the experiment on RPMI-8226 leukemia, in the experiment on A498 renal, in the experiment on COLO 205 colon and with HCT-116 colon was more than 100 µM throughout. Besides, the TGI with HCT-15 colon, with HL-60(TB) leukemia and in the experiment with SNB-19 CNS was more than 100 µM each time.

`Cc1ccc(C2=C(c3ccccc3)C(O)(c3ccc(C)cc3)C(c3ccccc3)=C2c2ccc(C)cc2)cc1`: the TGI with M14 melanoma, in the experiment with OVCAR-5 ovarian, in the experiment with RPMI-8226 leukemia, with A498 renal, with COLO 205 colon and with HCT-116 colon was more than 100 µM in each case. In addition, the TGI with HCT-15 colon, in the experiment with HL-60(TB) leukemia and in the experiment with SNB-19 CNS was more than 100 µM in each case.

Take `S=C(Nc1ccccc1)N1N=C2c3ccccc3CC[C@H]2[C@@H]1c1ccccc1`: the TGI in the experiment with M14 melanoma, in the experiment with OVCAR-5 ovarian, in the experiment with RPMI-8226 leukemia, with A498 renal, in the experiment with HCT-116 colon and in the experiment on HCT-15 colon was more than 100 µM throughout. For the same compound, the results for the TGI in the experiment on HL-60(TB) leukemia and in the experiment with SNB-19 CNS were 4.83 µM and more than 100 µM, respectively.

With `O=c1/c(=C/c2ccc3c(c2)OCO3)sc2nnc(-c3ccco3)n12`, the TGI in the experiment with M14 melanoma, with OVCAR-5 ovarian, in the experiment on RPMI-8226 leukemia, with A498 renal, in the experiment on COLO 205 colon and with HCT-116 colon was more than 100 µM throughout. Moreover, the TGI in the experiment on HL-60(TB) leukemia and in the experiment on SNB-19 CNS was more than 100 µM throughout.
